Measured values from US20260116874A1, “HETEROAROMATIC INDOLESULFONAMIDES” (SEED Therapeutics, Inc., priority 2023, published 2026).
Converted amounts (≈) assume the structure as drawn. Read-outs that look alike come from different tables or passages of the source.

Tests used:
[1] = Liver microsomes stability, mouse; type: in vitro ADME
Experimental: A 100 μM test compound solution and PC solution (verapamil) was prepared by adding 2 μL of 10 mM stock solution in DMSO to 198 μL of 50% acetonitrile/50% water.
Two separate experiments were performed as follows:
a) With Cofactors (NADPH): 25 μL of 10 mM NADPH was added to the incubations. The final concentrations of microsomes and NADPH were 0.5 mg/mL and 1 mM, respectively.
b) Without Cofactors (NADPH): 25 μL of 100 mM Phosphate buffer was added to the incubations. The final concentration of microsomes was 0.5 mg/mL. The mixture was pre-warmed at 37° C. for 10 minutes.
The reaction was started with the addition of 2.5 μL of 100 µM control compound or test compound solutions. Verapamil was used as positive control in this study. The final concentration of test compound or control compound was 1 μM. The incubation solution was incubated in a water bath at 37° C.
Aliquots of 30 μL were taken from the reaction solution at 0.5, 15, 30, 45 and 60 minutes. The reaction was stopped by the addition of 5 volumes of cold acetonitrile with IS (100 nM alprazolam, 200 nM caffeine and 100 nM tolbutamide).
Samples were then centrifuged at 3,220 g for 40 minutes. An aliquot of 100 μL of the supernatant was mixed with 100 μL of ultra-pure H2O and then used for LC-MS/MS analysis.
Single dose PK parameters were also determined for Compound 143, a deuterated derivative of Compound 1, according to the methods described herein. […] Metabolic stability was assessed by measuring the half-life of the test compounds in human and mouse liver microsomes.

[2] = General solubility protocol (PBS, pH 7.4); type: physicochemical; settings: PBS buffer, aqueous buffer, kinetic from dmso stock, pH 7.4, 25° C.
Experimental: Into a 96-well rack, 15 μL of stock solution (10 mM) of each sample was placed. Into each vial of a cap-less Solubility Sample plate 485 μL of buffer was added. The assay was performed in duplicate. To each vial one stir stick was added and each vial was sealed using a molded PTFE/Silicone plug. The Solubility Sample plate was then transferred to an Eppendorf Thermomixer Comfort plate shaker and shake at 25° C. at 1100 RPM for 2 hours. […] Using a vacuum manifold, all the samples were filtered. An aliquot of 5 μL was taken from the filtrate and 5 μL blank DMSO followed by addition of 490 μL of a mixture of H2O and acetonitrile containing an internal standard (1:1). The dilution factor may be changed according to the solubility value and the LC/MS signal response.

MDR1 = molecular target: T1, MDR1 (Homo sapiens, UniProt P08183); experiment: MDCK-MDR1 permeability / efflux assay; type: in vitro ADME, canine; settings: dog; for Papp A→B at 2 h, 1 µM: MDCK-MDR1, pH 7.4, MDCK cells, apical to basolateral
T1 construct: expressed in transfected cells; host or cells: MDCK-MDR1 cells (MDCK host)
T1 sequence (P08183 whole entry): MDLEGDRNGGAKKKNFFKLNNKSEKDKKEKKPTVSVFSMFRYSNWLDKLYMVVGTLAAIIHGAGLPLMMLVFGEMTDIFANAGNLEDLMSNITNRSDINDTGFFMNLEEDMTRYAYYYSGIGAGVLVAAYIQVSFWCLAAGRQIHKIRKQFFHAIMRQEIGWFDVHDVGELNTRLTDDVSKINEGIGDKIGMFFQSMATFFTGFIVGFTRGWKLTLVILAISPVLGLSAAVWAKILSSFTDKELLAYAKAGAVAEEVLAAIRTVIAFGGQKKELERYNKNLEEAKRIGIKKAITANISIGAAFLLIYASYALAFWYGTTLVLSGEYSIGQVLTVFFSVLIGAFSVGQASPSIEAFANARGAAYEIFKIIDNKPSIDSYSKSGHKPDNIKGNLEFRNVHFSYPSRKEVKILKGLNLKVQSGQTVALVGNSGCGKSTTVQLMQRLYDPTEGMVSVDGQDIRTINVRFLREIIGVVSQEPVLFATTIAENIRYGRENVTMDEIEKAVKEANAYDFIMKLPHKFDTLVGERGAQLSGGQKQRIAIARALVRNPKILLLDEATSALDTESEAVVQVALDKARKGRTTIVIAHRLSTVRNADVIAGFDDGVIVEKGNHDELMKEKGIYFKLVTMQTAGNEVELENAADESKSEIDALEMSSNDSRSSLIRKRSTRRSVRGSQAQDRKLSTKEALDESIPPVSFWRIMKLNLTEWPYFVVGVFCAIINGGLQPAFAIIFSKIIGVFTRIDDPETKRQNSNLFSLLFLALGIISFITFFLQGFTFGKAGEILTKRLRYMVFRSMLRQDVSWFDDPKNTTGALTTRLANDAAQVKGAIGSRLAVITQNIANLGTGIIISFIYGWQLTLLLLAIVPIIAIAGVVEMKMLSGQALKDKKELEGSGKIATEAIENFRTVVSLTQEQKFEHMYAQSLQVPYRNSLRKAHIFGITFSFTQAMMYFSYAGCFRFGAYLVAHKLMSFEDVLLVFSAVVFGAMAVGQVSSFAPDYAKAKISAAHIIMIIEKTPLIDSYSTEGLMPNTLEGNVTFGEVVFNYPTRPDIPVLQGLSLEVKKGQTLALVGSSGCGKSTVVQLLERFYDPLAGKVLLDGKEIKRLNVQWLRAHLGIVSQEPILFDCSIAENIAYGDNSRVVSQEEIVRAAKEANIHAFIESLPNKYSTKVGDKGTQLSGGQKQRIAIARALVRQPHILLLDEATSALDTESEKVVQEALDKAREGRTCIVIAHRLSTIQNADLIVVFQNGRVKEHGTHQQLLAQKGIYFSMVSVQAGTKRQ
Experimental: To prepare transport buffer (HBSS with 10 mM HEPES, pH 7.4), 2.383 g of HEPES and 0.35 g sodium hydrogen carbonate was accurately weighed and added into 900 mL of pure water, then sonicated to dissolve the content. Into the solution was transferred 100 mL of 10×HBSS, and the solution was placed on a stirrer. The pH of the solution was slowly adjusted with sodium hydroxide to 7.4, followed with filtering.
MDCK-MDR1 plate(s) were removed from the incubator. The monolayer was washed the monolayer twice with pre-warmed HBSS (10 mM HEPES, pH 7.4). Then the plate(s) were incubated at 37° C. for 30 minutes.
Propranolol was used as the high permeability marker. Digoxin was used as the substrate of […] (MDR1). Stock solutions of test compound(s) and digoxin in DMSO at 0.2 mM were prepared and diluted with HBSS (10 mM HEPES, pH 7.4) to get 1 μM working solutions. Stock solutions of propranolol in DMSO at 1 mM was prepared and diluted with HBSS (10 mM HEPES, pH 7.4) to get 5 μM working solutions.
To determine the rate of drug transport in the apical to basolateral direction, 125 μL of the working solution was added to the Transwell insert (apical compartment), and a 50 μL sample was immediately transferred from the apical compartment to 200 μL quenching solvents (acetonitrile with 100 nM alprazolam, 200 nM caffeine, 200 nM labetalol and 100 nM tolbutamide) in a new 96-well plate as the initial donor sample (A-B). The plate was shaken at 1000 rpm for 10 minutes. The wells in the receiver plate (basolateral compartment) were filled with 235 μL of transport buffer. All incubations were performed in duplicate.
To determine the rate of drug transport in the basolateral to apical direction, 285 μL of the 1 μM working solution was added to the receiver plate wells (basolateral compartment), and a 50 μL sample was immediately transferred from the basolateral compartment to 200 μL quenching solvents (acetonitrile with 100 nM alprazolam, 200 nM caffeine, 200 nM labetalol and 100 nM tolbutamide) in a new 96-well plate as the initial donor sample (B-A). Shake the plate at 1000 rpm 10 minutes. The Transwell insert (apical compartment) was filled with 75 μL of transport buffer. The apical to basolateral direction and the basolateral to apical direction were done at the same time.
The Transwell insert plate was inserted into the basolateral plate, transferred into the incubator and incubated at 37° C. for 2 hours.
At the end of the incubation, 50 μL samples from donor sides (apical compartment for Ap→Bl flux, and basolateral compartment for Bl→Ap flux) and receiver sides (basolateral compartment for Ap→Bl flux, and apical compartment for Bl→Ap flux) were transferred to wells of a new 96-well plate, followed by the addition of 4 volume of quenching solvents (acetonitrile with 100 nM alprazolam, 200 nM caffeine, 200 nM labetalol and 100 nM tolbutamide). Samples were Vortexed for 10 minutes and then centrifuged at 3,220 g for 40 minutes. An aliquot of 100 μL of the supernatant was mixed with an appropriate volume of ultra-pure water before LC-MS/MS analysis.
To determine the Lucifer yellow leakage after 2-hour transport period, Lucifer yellow working solutions were prepared by diluting the stock solution with HBSS (10 mM HEPES, pH 7.4) to reach the final concentration of 100 μM. To the apical compartment, 100 μL of the Lucifer yellow solution were added. The plate(s) were incubated at 37° C. for 30 minutes and 80 μL was directly removed from the apical and basolateral wells and transferred to new 96 wells plates. Lucifer yellow fluorescence (to monitor monolayer integrity) was measured in a fluorescence plate reader at 485 nm excitation and 530 nm emission.

[3] = Telencephalon concentrations after oral administration; type: in vivo, female BALB/c mice; settings: for AUC(0-t) / Cmax: mouse, 20 mg/kg, telencephalon, female BALB/c mice, Table 8
[4] = 1 μM, Table 3, read-out: Metabolic Stability Half-life, mouse
[5] = Table 6, read-out: Metabolic Stability Half-life, Mouse
[6] = MDCK-MDR1, pH 7.4, MDCK cells, Table 6, read-out: MDCK Permeability Efflux Ratio
[7] = MDCK-MDR1, pH 7.4, MDCK-MDR1, 1 μM, 2 hours, Table 3, read-out: MDCK-MDR1 Efflux ratio

Structure (SMILES) | half-life at 1 µM [1, 4] [min] | half-life at 1 µM [1, 5] [min] | solubility at 2 h [2] [µM] | efflux ratio at 2 h, 1 µM (MDR1; [6]) | efflux ratio at 2 h, 1 µM (MDR1; [7]) | Papp A→B at 2 h, 1 µM (MDR1; Table 6) [×10⁻⁶ cm/s] | increase in telencephalon AUC compared to E7820 ([3]; compared to E7820) [fold] | AUC(0-t) [3] [ng·h/mL] | Cmax [3] [ng/mL] | increase in telencephalon AUC compared to Compound 1 ([3]; compared to Compound 1) [fold]
Cc1ccc(NS(=O)(=O)c2cccc(C#N)c2)c2[nH]cc(C#N)c12 [Compound E7820, E7820, reference compound] | 28.7 | 29 | 80.7 (≈ 27.2 µg/mL) | 30 | 29.9 | 1.1 |  |  |  | 
Cc1ncc(S(=O)(=O)Nc2ccc(C)c3c(C#N)c[nH]c23)s1 [Compound 1, N-(3-cyano-4-methyl-1H-indol-7-yl)-2-methyl-thiazole-5-sulfonamide] | 47.1 | 47 | 51.5 (≈ 17.1 µg/mL) | 26 | 25.5 | 1.9 | 2 | 774 | 193 | 
[2H]C([2H])([2H])c1ncc(S(=O)(=O)Nc2ccc(C)c3c(C#N)c[nH]c23)s1 [Compound 143, N-(3-cyano-4-methyl-1H-indol-7-yl)-2-(methyl-d3)thiazole-5-sulfonamide] |  | 67 |  | 12 |  | 2.9 |  | 2060 | 373 | 2.5
